Measured values from patent US20050163814A1, “Granulated phosphoroamido(di) thioates” (priority 2002, published 2005).
Marks after values point to notes of the source that are not given here.

Key:
Type in all cases: physicochemical
[1] = GE Brightness of acephate powder; details: bulk powder, reflected light
Protocol: A sample of technical grade acephate crystals was obtained (Examples 1 and 3) and compared. […] Half of each sample was analyzed for brightness and particle size distribution.
Milling caused a measurable increase in the brightness of the bulk powder sample as measured by reflected light. Such an increase is visually apparent as a noticeably brighter powder when compared side-by-side under the GE Brightness test.

[2] = Particle size distribution (sieve openings) of acephate technical
Protocol: The other half of the Source B sample was analyzed for particle size distribution as received and with the milling according to the invention. FIG. 1 (unmilled) and FIG. 2 (milled) are graphs of the particle size distributions from the milling process. All values are in terms of weight percent of total sample that could pass through the designated sieve opening.

[3] = Crystal dimensions by visual inspection
From the text: The unmilled acephate from example 3 was a commercially available technical grade having elongated cylindrical shaped crystals with an average crystal length of 250-500 μm and an average width of 40-100 μm. In contrast, the acephate powder of example 4 was made of substantially cylindrical shaped crystals with an average crystal length of less than about 150 μm and an average width of less than 40 μm.

Compound: COP(=O)(NC(C)=O)SC (stereo not drawn) [Ex. 1, acephate, reference compound]
- GE Brightness [1]: 87.2

Compound: COP(=O)(NC(C)=O)SC (stereo not drawn) [Ex. 2, acephate]
- GE Brightness [1]: 88.4

Compound: COP(=O)(NC(C)=O)SC (stereo not drawn) [Ex. 3, acephate, reference compound]
- GE Brightness [1]: 90.2
- Summary Particle Size Distribution, Range ([2]; Sieve Size 2.3-3.9 μm, listed as Unmilled): 14.55 wt %
- Summary Particle Size Distribution, Range ([2]; Sieve Size 4.6-16 μm, listed as Unmilled): 33.43 wt %
- Summary Particle Size Distribution, Range ([2]; Sieve Size 4.6-37 μm, listed as Unmilled): 50.51 wt %
- Summary Particle Size Distribution, Range ([2]; Sieve Size 4.6-88 μm, listed as Unmilled): 65.44 wt %
- Summary Particle Size Distribution, Range ([2]; Sieve Size 19-37 μm, listed as Unmilled): 17.08 wt %
- Summary Particle Size Distribution, Range ([2]; Sieve Size 44-88 μm, listed as Unmilled): 14.93 wt %
- Summary Particle Size Distribution, Range ([2]; Sieve Size 105-149 μm, listed as Unmilled): 4.97 wt %
- Summary Particle Size Distribution, Range ([2]; Sieve Size <1.9 μm, listed as Unmilled): 13.27 wt %
- Summary Particle Size Distribution, Range ([2]; Sieve Size <3.9 μm, listed as Unmilled): 27.83 wt %
- Summary Particle Size Distribution, Range ([2]; Sieve Size >105 μm, listed as Unmilled): 6.73 wt %
- Summary Particle Size Distribution, Range ([2]; Sieve Size >177 μm, listed as Unmilled): 1.76 wt %
- Particle Size Distribution ([2]; Size 1.9 μm, listed as Unmilled): 3.6123 weight percent
- Particle Size Distribution ([2]; Size 2.3 μm, listed as Unmilled): 1.6125 weight percent
- Particle Size Distribution ([2]; Size 2.8 μm, listed as Unmilled): 3.3402 weight percent
- Particle Size Distribution ([2]; Size 3.3 μm, listed as Unmilled): 5.0469 weight percent
- Particle Size Distribution ([2]; Size 3.9 μm, listed as Unmilled): 4.5533 weight percent
- Particle Size Distribution ([2]; Size 4.6 μm, listed as Unmilled): 2.9044 weight percent
- Particle Size Distribution ([2]; Size 5.5 μm, listed as Unmilled): 3.2481 weight percent
- Particle Size Distribution ([2]; Size 6.5 μm, listed as Unmilled): 5.7966 weight percent
- Particle Size Distribution ([2]; Size 7.8 μm, listed as Unmilled): 4.6403 weight percent
- Particle Size Distribution ([2]; Size 9.2 μm, listed as Unmilled): 4.2474 weight percent
- Particle Size Distribution ([2]; Size 11 μm, listed as Unmilled): 4.6232 weight percent
- Particle Size Distribution ([2]; Size 13 μm, listed as Unmilled): 4.6531 weight percent
- Particle Size Distribution ([2]; Size 16 μm, listed as Unmilled): 3.3203 weight percent
- Particle Size Distribution ([2]; Size 19 μm, listed as Unmilled): 3.2150 weight percent
- Particle Size Distribution ([2]; Size 22 μm, listed as Unmilled): 3.1651 weight percent
- Particle Size Distribution ([2]; Size 26 μm, listed as Unmilled): 3.7619 weight percent
- Particle Size Distribution ([2]; Size 31 μm, listed as Unmilled): 3.7231 weight percent
- Particle Size Distribution ([2]; Size 37 μm, listed as Unmilled): 3.2123 weight percent
- Particle Size Distribution ([2]; Size 44 μm, listed as Unmilled): 3.0323 weight percent
- Particle Size Distribution ([2]; Size 53 μm, listed as Unmilled): 3.3767 weight percent
- Particle Size Distribution ([2]; Size 63 μm, listed as Unmilled): 3.2501 weight percent
- Particle Size Distribution ([2]; Size 75 μm, listed as Unmilled): 2.8069 weight percent
- Particle Size Distribution ([2]; Size 88 μm, listed as Unmilled): 2.4665 weight percent
- Particle Size Distribution ([2]; Size 105 μm, listed as Unmilled): 2.0819 weight percent
- Particle Size Distribution ([2]; Size 125 μm, listed as Unmilled): 1.5293 weight percent
- Particle Size Distribution ([2]; Size 149 μm, listed as Unmilled): 1.3606 weight percent
- Particle Size Distribution ([2]; Size 177 μm, listed as Unmilled): 0.7768 weight percent
- Particle Size Distribution ([2]; Size 210 μm, listed as Unmilled): 0.4565 weight percent
- Particle Size Distribution ([2]; Size 250 μm, listed as Unmilled): 0.2321 weight percent
- Particle Size Distribution ([2]; Size 298 μm, listed as Unmilled): 0.1849 weight percent
- Particle Size Distribution ([2]; Size <1.9 μm, listed as Unmilled): 9.6625 weight percent
- Particle Size Distribution ([2]; Size >298 μm, listed as Unmilled): 0.1068 weight percent
- mean particle size ([2]; listed as Unmilled): 30.4 μm
- median particle size ([2]; listed as Unmilled): 11.7 μm
- Summary Particle Size Distribution, Cumul. ([2]; up to Sieve Size 2.3-3.9 μm, listed as Unmilled): 27.83 wt %
- Summary Particle Size Distribution, Cumul. ([2]; up to Sieve Size 4.6-16 μm, listed as Unmilled): 61.26 wt %
- Summary Particle Size Distribution, Cumul. ([2]; up to Sieve Size 19-37 μm, listed as Unmilled): 78.34 wt %
- Summary Particle Size Distribution, Cumul. ([2]; up to Sieve Size 44-88 μm, listed as Unmilled): 93.27 wt %
- Summary Particle Size Distribution, Cumul. ([2]; up to Sieve Size 105-149 μm, listed as Unmilled): 98.24 wt %
- Summary Particle Size Distribution, Cumul. ([2]; up to Sieve Size <1.9 μm, listed as Unmilled): 13.27 wt %
- Summary Particle Size Distribution, Cumul. ([2]; up to Sieve Size >177 μm, subject to rounding): ˜100* wt %
- Crystal dimensions: length ([3]; Table 4, listed as Unmilled): 100-280 μm
- Crystal dimensions: width ([3]; Table 4, listed as Unmilled): 40-50 μm
- Aspect ratio ([3]; length:width, listed as Unmilled): 2.5-5.6
- average crystal length ([3]; visual inspection): 250-500 μm
- average width ([3]; visual inspection): 40-100 μm
